From PubChem BioAssay AID330 (DTP/NCI, 2004)
Inconclusive results and toxic doses are left out.

Test system: P388 leukemia ip, CD2F1 mice, survival T/C
Assay: NCI In Vivo Anticancer Drug Screen. Data for tumor model P388 Leukemia (intraperitoneal) in CD2F1 (CDF1) mice
Settings: endpoint: median survival time, higher = longer survival
How it was run: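 Mice carrying the transplanted tumor received test compound or vehicle. Survival was recorded in each group, and the value is the treated-group measurement divided by that of the vehicle-treated control group.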

[1] = dose: 50.0 mg/kg/injection, schedule: Q01DX009 (ip), vehicle: Klucel (hydroxypropylcellulose) (HPC)
[2] = dose: 100.0 mg/kg/injection, schedule: Q01DX009 (ip), vehicle: Klucel (hydroxypropylcellulose) (HPC)

O=[N+]([O-])c1ccc(-c2nc(CN3CCOCC3)cs2)s1
T/C (dose: 25.0 mg/kg/injection, schedule: Q01DX009 (ip), vehicle: saline with Tween-80): 98 % of control
T/C (dose: 50.0 mg/kg/injection, schedule: Q01DX009 (ip), vehicle: saline with Tween-80): 103 % of control
T/C (dose: 100.0 mg/kg/injection, schedule: Q01DX009 (ip), vehicle: saline with Tween-80): 106 % of control

O=[n+]1ccn([O-])c2ccccc21.[O-][Cl+3]([O-])([O-])O.[Zn+2]
T/C (dose: 100.0 mg/kg/injection, schedule: Q04DX003 (ip), vehicle: saline with Tween-80): 98 % of control

CNc1ccc2c(cc1=O)C(NC(C)=O)CCc1cc(OC)c(OC)c(OC)c1-2 (stereo not given)
T/C (dose: 0.08 mg/kg/injection, schedule: Q01DX009 (ip), vehicle: Klucel (hydroxypropylcellulose) (HPC)): 157 % of control
T/C (dose: 0.12 mg/kg/injection, schedule: Q01DX009 (ip), vehicle: Klucel (hydroxypropylcellulose) (HPC)): 157 % of control
T/C (dose: 0.16 mg/kg/injection, schedule: Q01DX009 (ip), vehicle: Klucel (hydroxypropylcellulose) (HPC)): 174 % of control
T/C (dose: 0.25 mg/kg/injection, schedule: Q01DX009 (ip), vehicle: Klucel (hydroxypropylcellulose) (HPC)): 150 % of control
T/C (dose: 0.32 mg/kg/injection, schedule: Q01DX009 (ip), vehicle: Klucel (hydroxypropylcellulose) (HPC)): 166 % of control

O=C(Nc1ccccc1Cl)Oc1ccc(Cl)cc1Cl
T/C [1]: 101 % of control
T/C [2]: 110 % of control
T/C (dose: 200.0 mg/kg/injection, schedule: Q01DX009 (ip), vehicle: Klucel (hydroxypropylcellulose) (HPC)): 106 % of control

COC(=O)Nc1cn2nc(N)sc2n1
T/C (dose: 100.0 mg/kg/injection, schedule: Q01DX001 (ip), vehicle: saline with Tween-80): 102 % of control
T/C (dose: 200.0 mg/kg/injection, schedule: Q01DX001 (ip), vehicle: saline with Tween-80): 101 % of control
T/C (dose: 400.0 mg/kg/injection, schedule: Q01DX001 (ip), vehicle: saline with Tween-80): 99 % of control

Cc1cc(=O)n2c(nc3cc(C)c(C)cc32)s1
T/C [1]: 103 % of control
T/C [2]: 100 % of control

COC1=CC(=O)C(OC)=C(OC)C1=O
T/C (dose: 22.0 mg/kg/injection, schedule: Q01DX009 (ip), vehicle: saline with Tween-80): 112 % of control
T/C (dose: 33.0 mg/kg/injection, schedule: Q01DX009 (ip), vehicle: saline with Tween-80): 123 % of control
T/C (dose: 75.0 mg/kg/injection, schedule: Q01DX009 (ip), vehicle: saline with Tween-80): 104 % of control
